Measurements: patent US7541367B2, “3-benzoimidazolyl-pyrazolopyridines useful in treating kinase disorders” (Janssen Pharmaceutica, N.V., priority 2005, dated 2009)

Experiments:
RET = biological target: T1, RET (Homo sapiens, UniProt P07949); assay: RET kinase screening assay (33P-ATP FlashPlate); format: biochemical; details: human RET kinase domain; 10 μM ATP; 1 hr at 30° C;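 note: biotinylated peptide substrate captured on streptavidin FlashPlate, 33P phosphate transfer read by scintillation counting, 1% DMSO, lower incorporation means inhibition, percent relative to per-plate maximum and minimum signals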
T1 construct: polyhistidine (N)
T1 sequence (P07949 658-1114 limits assumed): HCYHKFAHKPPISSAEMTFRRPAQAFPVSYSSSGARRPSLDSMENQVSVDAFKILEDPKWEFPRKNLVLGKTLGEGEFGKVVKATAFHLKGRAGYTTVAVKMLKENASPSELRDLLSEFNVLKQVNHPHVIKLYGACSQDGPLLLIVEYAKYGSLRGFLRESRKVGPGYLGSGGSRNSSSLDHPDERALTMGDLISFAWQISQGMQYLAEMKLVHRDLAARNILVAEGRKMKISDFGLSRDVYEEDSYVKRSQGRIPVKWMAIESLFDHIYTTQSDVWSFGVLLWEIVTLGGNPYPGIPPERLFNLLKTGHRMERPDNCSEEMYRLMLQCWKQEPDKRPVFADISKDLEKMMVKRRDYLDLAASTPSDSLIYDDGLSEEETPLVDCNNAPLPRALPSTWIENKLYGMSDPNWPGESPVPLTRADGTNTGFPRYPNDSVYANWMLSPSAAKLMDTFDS

VEGF-R2 = biological target: T2, VEGF-R2 (Rattus norvegicus, UniProt O08775); assay: VEGF-R2 kinase screening assay (33P-ATP FlashPlate); format: biochemical; details: rat VEGF-R2 kinase domain; 10 μM ATP; 1 hr at 30° C;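 note: Read-out is ³³P incorporation from ³³P-γ-ATP into biotinylated peptide substrate captured on streptavidin FlashPlate, counted by scintillation, 1% DMSO final, inhibition scaled between per-plate maximum and minimum signals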
T2 construct: polyhistidine (N)

HER2 = biological target: T3, HER2 (Homo sapiens, UniProt P04626); assay: HER2 kinase screening assay (33P-ATP FlashPlate); format: biochemical; details: GST-HIS6 HER-2 aa 679 to 1255; 10 μM ATP; 1 hr at 30° C;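 note: Biotin-poly(GT) 4:1 peptide captured on streptavidin FlashPlate, 33P transfer from γ-ATP read by scintillation counting, lower incorporation means inhibition, 1% DMSO final, 100 µL reaction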
T3 construct: GST (Glutathione-S-Transferase) (N); HIS6 (N); thrombin cleavage site (N); purchased Proqinase, Freiburg, Germany

CDK1 = biological target: T4, CDK1 (Homo sapiens, UniProt P06493); assay: CDK-1 kinase screening assay (33P-ATP FlashPlate); format: biochemical; details: human CDK1 with cyclin B; 10 μM ATP; 1 hr at 30° C
T4 construct: purchased New England Biolabs, Beverly, Mass; 6020; host or cells: insect cells

[1] = tested on: HeLa cervical adenocarcinoma; assay: Cell Proliferation Inhibition Assay (14C-thymidine incorporation), HeLa; format: cell-based; details: Homo sapiens, HeLa, HeLa cells;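 note: test compound in DMSO added to cells seeded in scintillating 96-well plates, DMSO-only wells as control, uptake of methyl 14C-thymidine into new DNA counted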
A375 malignant melanoma = assay: Cell Proliferation Inhibition Assay (14C-thymidine incorporation), A375; format: cell-based; details: Homo sapiens, A-375, A375 cells;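 note: proliferation measured by radiolabelled thymidine uptake into new DNA, counted in scintillating 96-well plates, compound-treated wells compared with DMSO-only control wells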
HCT-116 colon carcinoma = assay: Cell Proliferation Inhibition Assay (14C-thymidine incorporation), HCT-116; format: cell-based; details: Homo sapiens, HCT-116, HCT-116 cells;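 note: proliferation measured as methyl 14C-thymidine uptake into new DNA, counted in 96-well scintillating microplates, compared with DMSO-only control wells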
Aurora-A = biological target: T5, Aurora-A (Mus musculus, UniProt P97477); assay: Aurora-A kinase screening assay (33P-ATP FlashPlate); format: biochemical; details: 10 μM ATP, 1 hr at 30° C;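 note: His-tagged mouse Aurora-A phosphorylating a biotinylated peptide captured on streptavidin plates, read as 33P uptake by scintillation counting, 1% DMSO, inhibition scaled between per-plate maximum and minimum signals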
T5 construct: polyhistidine (N)
T5 sequence (P97477 1-395): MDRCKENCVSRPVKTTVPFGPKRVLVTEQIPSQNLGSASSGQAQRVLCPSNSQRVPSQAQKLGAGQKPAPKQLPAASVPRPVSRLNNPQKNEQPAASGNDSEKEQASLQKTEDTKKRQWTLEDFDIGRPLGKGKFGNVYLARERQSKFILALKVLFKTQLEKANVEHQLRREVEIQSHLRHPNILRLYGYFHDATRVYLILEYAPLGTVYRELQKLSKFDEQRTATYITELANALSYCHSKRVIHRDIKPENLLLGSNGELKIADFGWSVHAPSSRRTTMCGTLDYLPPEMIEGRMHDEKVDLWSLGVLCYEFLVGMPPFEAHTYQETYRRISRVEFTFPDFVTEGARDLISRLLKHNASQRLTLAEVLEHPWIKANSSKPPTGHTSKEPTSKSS

T4 sequence (P06493 whole entry): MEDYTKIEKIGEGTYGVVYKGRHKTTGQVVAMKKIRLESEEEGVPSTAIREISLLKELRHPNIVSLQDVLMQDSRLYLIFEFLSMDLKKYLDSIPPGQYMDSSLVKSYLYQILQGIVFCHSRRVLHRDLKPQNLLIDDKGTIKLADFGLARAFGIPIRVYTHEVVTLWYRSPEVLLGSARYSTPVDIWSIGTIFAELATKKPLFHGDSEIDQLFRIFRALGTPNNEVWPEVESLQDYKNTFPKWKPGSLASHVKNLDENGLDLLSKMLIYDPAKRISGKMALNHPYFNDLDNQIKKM
T4 sequence (P14635 whole entry partner): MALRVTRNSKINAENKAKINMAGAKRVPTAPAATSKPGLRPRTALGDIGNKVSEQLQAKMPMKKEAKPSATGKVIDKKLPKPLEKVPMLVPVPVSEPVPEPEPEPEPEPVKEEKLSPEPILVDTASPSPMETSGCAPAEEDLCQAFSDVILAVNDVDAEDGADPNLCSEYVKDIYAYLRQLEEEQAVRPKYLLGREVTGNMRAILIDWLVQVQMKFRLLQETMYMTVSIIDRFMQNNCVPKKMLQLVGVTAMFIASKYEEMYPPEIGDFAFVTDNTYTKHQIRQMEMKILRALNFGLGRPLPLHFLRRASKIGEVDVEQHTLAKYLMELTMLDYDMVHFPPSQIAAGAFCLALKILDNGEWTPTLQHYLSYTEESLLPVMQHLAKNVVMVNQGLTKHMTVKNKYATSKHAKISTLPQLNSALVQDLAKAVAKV
T3 sequence (P04626 679-1255): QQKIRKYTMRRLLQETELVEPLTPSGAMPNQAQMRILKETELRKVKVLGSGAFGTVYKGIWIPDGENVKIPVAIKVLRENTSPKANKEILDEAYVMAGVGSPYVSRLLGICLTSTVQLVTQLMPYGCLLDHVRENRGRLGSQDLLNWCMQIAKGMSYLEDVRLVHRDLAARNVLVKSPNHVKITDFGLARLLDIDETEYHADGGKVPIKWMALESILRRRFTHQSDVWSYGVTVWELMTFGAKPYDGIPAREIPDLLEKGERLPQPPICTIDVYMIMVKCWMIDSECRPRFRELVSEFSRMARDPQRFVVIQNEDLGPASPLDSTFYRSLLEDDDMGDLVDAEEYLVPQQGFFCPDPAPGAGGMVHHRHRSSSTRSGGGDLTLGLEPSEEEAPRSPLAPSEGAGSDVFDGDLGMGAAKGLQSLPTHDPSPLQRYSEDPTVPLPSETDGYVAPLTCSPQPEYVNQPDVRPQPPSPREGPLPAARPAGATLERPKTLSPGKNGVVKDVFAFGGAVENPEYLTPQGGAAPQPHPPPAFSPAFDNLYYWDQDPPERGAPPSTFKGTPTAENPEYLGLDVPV
T2 sequence (O08775 786-1343): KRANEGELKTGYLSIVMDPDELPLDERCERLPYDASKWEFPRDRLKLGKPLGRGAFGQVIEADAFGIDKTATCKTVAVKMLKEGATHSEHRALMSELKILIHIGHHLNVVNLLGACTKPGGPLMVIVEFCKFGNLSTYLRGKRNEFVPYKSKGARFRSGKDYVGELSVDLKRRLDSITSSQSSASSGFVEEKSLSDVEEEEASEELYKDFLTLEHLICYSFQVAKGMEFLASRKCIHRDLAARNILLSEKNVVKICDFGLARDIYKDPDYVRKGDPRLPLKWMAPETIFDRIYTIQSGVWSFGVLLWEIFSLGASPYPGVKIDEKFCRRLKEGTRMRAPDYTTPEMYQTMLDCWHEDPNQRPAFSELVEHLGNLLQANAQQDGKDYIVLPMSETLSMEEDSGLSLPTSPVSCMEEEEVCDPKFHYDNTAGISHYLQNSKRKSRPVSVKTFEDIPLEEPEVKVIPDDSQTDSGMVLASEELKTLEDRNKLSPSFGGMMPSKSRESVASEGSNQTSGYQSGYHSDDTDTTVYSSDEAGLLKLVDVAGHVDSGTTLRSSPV

Structure (SMILES)	IC50 (RET) [µM]	IC50 (VEGF-R2) [nM]	IC50 (HER2) [µM]	IC50 (CDK1) [nM]	IC50 [1] [nM]	IC50 (A375 malignant melanoma) [nM]	IC50 (HCT-116 colon carcinoma) [nM]	IC50 (Aurora-A) [µM]
COCc1cccc2[nH]c(-c3n[nH]c4ncc(-c5ccc(N6CCN(C(=O)OC(C)(C)C)CC6)nc5)cc34)nc12 [Cpd 67, 4-{5-[3-(4-methoxymethyl-1H-benzoimidazol-2-yl)-1H-pyrazolo[3,4-b]pyridin-5-yl]-pyridin-2-yl}-piperazine-1-carboxylic acid tert-butyl ester]	> 100	> 10000	> 100	> 10000	1980	10.9	24.5	> 100
COCc1cccc2[nH]c(-c3n[nH]c4ncc(-c5cncnc5)cc34)nc12 [Cpd 68, 3-(4-methoxymethyl-1H-benzoimidazol-2-yl)-5-pyrimidin-5-yl-1H-pyrazolo[3,4-b]pyridine]	> 100	115	> 100	1280	9910	160	325	~10
CCOC(=O)c1cncc(-c2cnc3[nH]nc(-c4nc5c(COC)cccc5[nH]4)c3c2)c1 [Cpd 70, 5-[3-(4-methoxymethyl-1H-benzoimidazol-2-yl)-1H-pyrazolo[3,4-b]pyridin-5-yl]-nicotinic acid ethyl ester]	> 100	~100000	> 100	> 100000	1940	38.7	55.4	~100
FC1(F)Oc2cc3nc(-c4n[nH]c5ncc(-c6cccnc6)cc45)[nH]c3cc2O1 [Cpd 98, 2,2-difluoro-6-(5-pyridin-3-yl-1H-pyrazolo[3,4-b]pyridin-3-yl)-5H-[1,3]dioxolo[4′,5′:4,5]benzo[1,2-d]imidazole]	> 100	> 100	> 100	6.6	1610	1080	943	> 10
c1cncc(-c2cnc3[nH]nc(-c4nc5cc6c(cc5[nH]4)OCO6)c3c2)c1 [Cpd 99, 6-(5-pyridin-3-yl-1H-pyrazolo[3,4-b]pyridin-3-yl)-5H-[1,3]dioxolo[4′,5′:4,5]benzo[1,2-d]imidazole]	> 100	~1000	> 100	3.3	471	489	271	~10

Now from value to compound:

IC50 (RET) [µM]	IC50 (VEGF-R2) [nM]	IC50 (HER2) [µM]	IC50 (CDK1) [nM]	IC50 [1] [nM]	IC50 (A375 malignant melanoma) [nM]	IC50 (HCT-116 colon carcinoma) [nM]	IC50 (Aurora-A) [µM]	Structure (SMILES)
> 10	~1000	> 10	6.81	417	343	218	2.45	CCCCNCc1cncc(-c2cnc3[nH]nc(-c4nc5c(COC)cccc5[nH]4)c3c2)c1 [Cpd 79, butyl-{5-[3-(4-methoxymethyl-1H-benzoimidazol-2-yl)-1H-pyrazolo[3,4-b]pyridin-5-yl]-pyridin-3-ylmethyl}-amine]
0.104	120	1.92	6.14	861	885	431	0.281	CN(C)Cc1cncc(-c2cnc3[nH]nc(-c4nc5cc(N6CCN(C)CC6)ccc5[nH]4)c3c2)c1 [Cpd 88, dimethyl-(5-{3-[5-(4-methyl-piperazin-1-yl)-1H-benzoimidazol-2-yl]-1H-pyrazolo[3,4-b]pyridin-5-yl}-pyridin-3-ylmethyl)-amine]
> 0.01	> 10	> 10	1.7	120	526	685	> 1	CNCc1cncc(-c2cnc3[nH]nc(-c4nc5ccc(C#N)cc5[nH]4)c3c2)c1 [Cpd 105, 2-[5-(5-methylaminomethyl-pyridin-3-yl)-1H-pyrazolo[3,4-b]pyridin-3-yl]-3H-benzoimidazole-5-carbonitrile]
